According to PubChem BioAssay (NCI):
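The compound was tested at five concentrations on cells cultured in 96-well plates, with a 48-hour exposure period. GI50 is the concentration that inhibits growth by half. Definition used: TGI = concentration required for complete inhibition of growth.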

What was measured:
Assay in all cases: NCI-60 cell line screen, 48 h
NCI/ADR-RES ovarian = tested on: NCI/ADR-RES ovarian
CAKI-1 renal = tested on: CAKI-1 renal
A549 NSCLC = tested on: A549 NSCLC
SF-295 CNS = tested on: SF-295 CNS
HOP-62 NSCLC = tested on: HOP-62 NSCLC
786-0 renal = tested on: 786-0 renal
KM12 colon = tested on: KM12 colon
OVCAR-4 ovarian = tested on: OVCAR-4 ovarian
MDA-MB-435 = tested on: MDA-MB-435
UACC-62 melanoma = tested on: UACC-62 melanoma

SMILES	GI50 (NCI/ADR-RES ovarian)	TGI (NCI/ADR-RES ovarian)	GI50 (CAKI-1 renal)	TGI (CAKI-1 renal)	GI50 (A549 NSCLC)	TGI (A549 NSCLC)	GI50 (SF-295 CNS)	TGI (SF-295 CNS)	GI50 (HOP-62 NSCLC)	TGI (HOP-62 NSCLC)	GI50 (786-0 renal)	TGI (786-0 renal)	GI50 (KM12 colon)	TGI (KM12 colon)	GI50 (OVCAR-4 ovarian)	TGI (OVCAR-4 ovarian)	GI50 (MDA-MB-435)	TGI (MDA-MB-435)	GI50 (UACC-62 melanoma)	TGI (UACC-62 melanoma)
NS(=O)(=O)c1ccc(-c2cc3ccncc3cc2OCc2ccccc2)cc1	25 µM	> 25 µM	> 23.8 µM	> 25 µM	8.59 µM	> 25 µM	> 18 µM	> 25 µM	6.83 µM	> 25 µM	> 19.8 µM	> 25 µM	> 20.2 µM	> 25 µM	> 19.6 µM	> 25 µM	> 25 µM	> 25 µM	> 23.7 µM	> 25 µM
COC1=C(OC)C(=O)C(SC/C=C(\C)CCCC(C)CCCC(C)CCCC(C)C)=CC1=O (centres undefined)	0.784 µM	> 46.7 µM	6.64 µM	> 37 µM	2.83 µM	> 100 µM	0.734 µM	2.88 µM	3.05 µM	> 100 µM	11.2 µM	> 100 µM	0.934 µM	> 87.9 µM	1.32 µM	> 100 µM	0.845 µM	> 38.7 µM	0.797 µM	> 100 µM
CCc1cccc(C)c1NC(=O)c1sc2nc3c(cc2c1N)C(=O)CCC3	0.768 µM	> 100 µM	0.537 µM	> 100 µM	0.652 µM	> 100 µM	0.299 µM	> 100 µM	10.7 µM	> 100 µM	0.734 µM	> 100 µM	0.455 µM	> 100 µM	0.78 µM	> 100 µM	0.159 µM		0.556 µM	> 100 µM
CSc1nc2sc3c(c2c(=O)n1-c1ccc(C(C)C)cc1)CCC(=O)C3	2.36 µM	5.13 µM	2.38 µM	6.03 µM	3.77 µM	20.7 µM	2.2 µM	4.76 µM	2.05 µM	4.05 µM	3.06 µM	9.79 µM	1.9 µM	3.95 µM	2.34 µM	5.86 µM	1.85 µM	3.71 µM	1.81 µM	3.49 µM
O=C(CCCCCCN1CC(=O)N2[C@@H](c3ccc(Cl)c(Cl)c3)c3[nH]c4ccccc4c3C[C@H]2C1=O)NO	> 33.3 µM	> 33.3 µM	3.43 µM	8.71 µM	4.99 µM	13.6 µM	3.66 µM	8 µM	3.88 µM	9.35 µM	4.63 µM	9.39 µM	3.8 µM	9.29 µM	4.71 µM	23.8 µM	3.13 µM	8.06 µM	1.66 µM	7.07 µM
COc1cc(/C=C/C(=O)c2cccc(-n3cc(-c4ccc(Cl)cc4)[nH]c3=O)c2)cc(OC)c1OC	2.36 µM	7.3 µM	15.6 µM	95.5 µM	85.2 µM	> 100 µM	24.3 µM	> 100 µM	23.6 µM	57.3 µM	2.14 µM	5.39 µM	5.45 µM	18.6 µM	11.4 µM	38 µM	3.63 µM	> 100 µM	8.88 µM	21.4 µM
